Reference: US12454531B2, “Substituted piperazine derivatives useful as T cell activators” (BRISTOL-MYERS SQUIBB COMPANY, priority 2019, dated 2025)

Molecular target: DGKζ (Homo sapiens (Human), UniProt Q13574)
Assay: Assay 1 or 2: In Vitro DGK Inhibition Assays (DGKζ LIPGLO, extruded liposome)
Assay type: biochemical
Conditions: extruded liposome substrate, 150 μM ATP

Chain of DGKζ (Q13574 other isoform, or with tags, fused parts or gaps): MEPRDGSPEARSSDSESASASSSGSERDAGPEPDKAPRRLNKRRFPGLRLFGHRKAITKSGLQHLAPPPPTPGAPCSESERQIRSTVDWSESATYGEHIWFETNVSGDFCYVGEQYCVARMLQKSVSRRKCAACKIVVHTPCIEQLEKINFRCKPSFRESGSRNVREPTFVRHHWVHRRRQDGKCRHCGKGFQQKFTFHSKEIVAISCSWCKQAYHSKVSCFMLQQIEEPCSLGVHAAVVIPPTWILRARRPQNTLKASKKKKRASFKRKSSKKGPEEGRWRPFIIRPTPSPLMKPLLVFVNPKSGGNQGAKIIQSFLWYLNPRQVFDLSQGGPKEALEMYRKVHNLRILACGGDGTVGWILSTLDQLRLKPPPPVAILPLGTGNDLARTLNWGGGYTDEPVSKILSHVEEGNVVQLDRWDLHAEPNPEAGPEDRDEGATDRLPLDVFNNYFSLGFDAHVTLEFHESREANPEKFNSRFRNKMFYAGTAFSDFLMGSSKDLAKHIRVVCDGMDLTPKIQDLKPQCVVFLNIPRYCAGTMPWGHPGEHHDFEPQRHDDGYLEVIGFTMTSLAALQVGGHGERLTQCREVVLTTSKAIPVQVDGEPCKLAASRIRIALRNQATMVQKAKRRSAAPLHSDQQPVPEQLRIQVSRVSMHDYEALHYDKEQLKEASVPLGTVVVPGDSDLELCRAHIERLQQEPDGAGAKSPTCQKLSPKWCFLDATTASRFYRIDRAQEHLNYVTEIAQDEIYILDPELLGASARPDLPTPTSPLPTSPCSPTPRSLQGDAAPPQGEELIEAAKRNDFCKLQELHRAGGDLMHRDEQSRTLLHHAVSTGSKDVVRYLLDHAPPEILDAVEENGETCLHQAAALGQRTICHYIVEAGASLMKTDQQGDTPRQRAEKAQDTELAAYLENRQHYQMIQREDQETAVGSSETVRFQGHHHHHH

CC[C@H]1CN(C(C(=O)N2CCOCC2)c2ccc(C(F)(F)F)cc2)[C@H](CC)CN1c1nc(=O)n(C)c2ccc(C#N)nc12 (single isomer, unassigned) [Example 53]
IC50: 3290 nM

CC[C@H]1CN(C(C(=O)N2CCOCC2)c2ccc(C(F)(F)F)cc2)[C@H](CC)CN1c1nc(=O)n(C)c2ccc(C#N)nc12 (single isomer, unassigned) [Example 54]
IC50: 580 nM

CC[C@H]1CN(C(C(=O)NCCOC)c2ccc(C(F)(F)F)cc2)[C@H](CC)CN1c1nc(=O)n(C)c2ccc(C#N)nc12 (single isomer, unassigned) [Example 56]
IC50: 100 nM
